The record followed here is ChEMBL document CHEMBL1909046, “DrugMatrix in vitro pharmacology data”.

The target of data set [1] is T1, Alpha-2A adrenergic receptor (Homo sapiens, UniProt P08913). Further: in other assays of this panel Not Active means under 50% inhibition at 10 µM.
T1 sequence (P08913 whole entry): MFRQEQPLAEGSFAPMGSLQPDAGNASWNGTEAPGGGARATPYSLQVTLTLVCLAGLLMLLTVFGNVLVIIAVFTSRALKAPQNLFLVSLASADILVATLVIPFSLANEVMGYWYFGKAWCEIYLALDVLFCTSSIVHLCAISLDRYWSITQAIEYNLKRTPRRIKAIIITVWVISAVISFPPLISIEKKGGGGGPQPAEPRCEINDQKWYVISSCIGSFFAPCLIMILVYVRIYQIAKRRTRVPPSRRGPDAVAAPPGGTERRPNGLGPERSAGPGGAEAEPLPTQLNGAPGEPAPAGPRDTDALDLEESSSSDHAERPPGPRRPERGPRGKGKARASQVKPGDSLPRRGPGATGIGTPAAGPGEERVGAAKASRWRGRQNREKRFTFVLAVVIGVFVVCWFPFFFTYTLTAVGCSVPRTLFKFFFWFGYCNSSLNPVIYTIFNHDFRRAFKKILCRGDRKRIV
Type of data set: cell membranes, Sf9, Membrane.

A further data set has as its target Cytochrome P450 3A4 (Homo sapiens, UniProt P08684). Particulars: bti-tn-5b1-4.
The target in data set [2] is 5-hydroxytryptamine receptor 4 (Cavia porcellus, UniProt O70528). In kind it is cell membranes, Dunkin-Hartley, Striatum, Membrane. Further: in other assays of this panel Not Active means under 50% inhibition at 10 µM.
Another data set addresses T2, Cathepsin G (Homo sapiens, UniProt P08311).
T2 sequence (P08311 whole entry): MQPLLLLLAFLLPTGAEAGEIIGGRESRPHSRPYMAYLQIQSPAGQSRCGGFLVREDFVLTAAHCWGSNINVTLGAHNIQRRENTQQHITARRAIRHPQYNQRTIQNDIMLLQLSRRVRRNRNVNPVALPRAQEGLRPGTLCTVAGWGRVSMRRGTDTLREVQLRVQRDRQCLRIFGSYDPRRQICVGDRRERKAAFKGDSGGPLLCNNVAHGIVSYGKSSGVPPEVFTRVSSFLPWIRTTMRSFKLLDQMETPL
Type of data set: tissue-based. To be noted: neutrophil.

In a further data set the target is Melanocortin receptor 3 (Homo sapiens, UniProt P41968). In kind it is cell membranes, Membrane. To be noted: hek293. Further: in other assays of this panel Not Active means under 50% inhibition at 10 µM.
The target of data set [3] is Sigma non-opioid intracellular receptor 1 (Homo sapiens, UniProt Q99720). Nature of the data set: DRUGMATRIX: Sigma1 radioligand binding (ligand: [3H] Haloperidol). Type of data set: cell membranes, Jurkat, Membrane. To be noted: Not Active = under 50% inhibition at 10 µM.
Chain of Sigma non-opioid intracellular receptor 1 (Q99720 whole entry): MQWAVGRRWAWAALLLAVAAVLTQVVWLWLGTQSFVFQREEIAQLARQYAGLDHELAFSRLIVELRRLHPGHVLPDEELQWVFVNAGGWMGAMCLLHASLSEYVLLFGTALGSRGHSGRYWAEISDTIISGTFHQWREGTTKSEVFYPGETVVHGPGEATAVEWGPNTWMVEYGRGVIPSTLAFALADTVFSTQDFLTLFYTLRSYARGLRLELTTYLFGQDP

Chain of 5-hydroxytryptamine receptor 4 (O70528 whole entry): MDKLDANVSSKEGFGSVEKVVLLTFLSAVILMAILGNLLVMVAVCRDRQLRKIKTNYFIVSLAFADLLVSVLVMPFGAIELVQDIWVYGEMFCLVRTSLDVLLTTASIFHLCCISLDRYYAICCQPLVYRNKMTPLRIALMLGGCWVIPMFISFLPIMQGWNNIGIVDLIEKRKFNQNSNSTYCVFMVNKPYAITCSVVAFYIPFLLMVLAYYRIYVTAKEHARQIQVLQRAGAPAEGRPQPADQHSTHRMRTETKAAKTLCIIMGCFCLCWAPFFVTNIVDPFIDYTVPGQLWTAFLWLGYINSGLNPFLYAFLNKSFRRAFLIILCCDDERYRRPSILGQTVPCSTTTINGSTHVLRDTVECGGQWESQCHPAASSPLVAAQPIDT
Chain of Melanocortin receptor 3 (P41968 whole entry): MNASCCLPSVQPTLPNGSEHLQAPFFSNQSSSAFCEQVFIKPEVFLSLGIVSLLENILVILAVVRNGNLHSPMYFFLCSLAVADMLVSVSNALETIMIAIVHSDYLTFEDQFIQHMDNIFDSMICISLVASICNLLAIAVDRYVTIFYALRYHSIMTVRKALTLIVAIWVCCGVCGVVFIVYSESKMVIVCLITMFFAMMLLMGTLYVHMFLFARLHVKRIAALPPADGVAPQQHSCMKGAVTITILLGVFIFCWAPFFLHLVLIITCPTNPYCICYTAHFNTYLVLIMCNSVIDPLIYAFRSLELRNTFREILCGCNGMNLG
Chain of Cytochrome P450 3A4 (P08684 whole entry): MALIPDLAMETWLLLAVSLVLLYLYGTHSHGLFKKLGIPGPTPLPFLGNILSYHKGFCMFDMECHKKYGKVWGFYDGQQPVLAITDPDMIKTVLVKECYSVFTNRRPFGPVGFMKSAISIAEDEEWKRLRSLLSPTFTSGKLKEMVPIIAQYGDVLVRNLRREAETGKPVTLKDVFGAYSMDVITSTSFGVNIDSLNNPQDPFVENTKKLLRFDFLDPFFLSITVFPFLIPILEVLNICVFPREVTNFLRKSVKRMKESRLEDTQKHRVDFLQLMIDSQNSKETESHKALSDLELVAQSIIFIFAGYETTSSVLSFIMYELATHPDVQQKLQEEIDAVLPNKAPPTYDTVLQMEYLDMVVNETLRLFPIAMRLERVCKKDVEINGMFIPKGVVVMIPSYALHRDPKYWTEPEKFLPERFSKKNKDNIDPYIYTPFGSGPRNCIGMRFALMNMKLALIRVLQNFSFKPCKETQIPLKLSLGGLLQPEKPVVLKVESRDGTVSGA

On to `CCc1oc2ccccc2c1C(=O)c1cc(Br)c(O)c(Br)c1` [BENZBROMARONE], for which the IC50 result (in data set [1] (sf9); at Cytochrome P450 3A4; in data set [2]; against Cathepsin G; on Melanocortin receptor 3; in data set [3] (jurkat)) was “Not Active” in each case. For the same molecule, the Ki (usually the dissociation constant of the complex between target and ligand, obtained from inhibition or displacement) on Cytochrome P450 3A4 is “Not Active”.
Turning to `O=c1cc(-c2ccccc2)oc2ccc3ccccc3c12` [BETA-NAPHTHOFLAVONE], the IC50 entry (in data set [1] (sf9); on Cytochrome P450 3A4; in data set [2]; against Cathepsin G; at Melanocortin receptor 3; in data set [3] (jurkat)) was “Not Active” in each case. Besides, on Cytochrome P450 3A4, the Ki result is “Not Active”.
As to `CS(=O)(=O)OCCCCOS(C)(=O)=O` [BUSULFAN], the IC50 entry (in data set [1] (sf9); against Cytochrome P450 3A4; in data set [2]; at Cathepsin G; on Melanocortin receptor 3; in data set [3] (jurkat)) was “Not Active” throughout. Moreover, on Cytochrome P450 3A4, the Ki entry is recorded as “Not Active”.
For `O=C(/C=C/c1ccc(O)c(O)c1)OCCc1ccccc1` [CAFFEIC ACID PHENETHYL ESTER], the IC50 result (in data set [1] (sf9); on Cytochrome P450 3A4; in data set [2]; on Cathepsin G; against Melanocortin receptor 3; in data set [3] (jurkat)) was “Not Active” in each case. For the same molecule, the Ki result at Cytochrome P450 3A4 is “Not Active”.
Take `COc1cc(CNC(=O)CCCC/C=C/C(C)C)ccc1O` [CAPSAICIN]: the IC50 entry (in data set [1] (sf9); against Cytochrome P450 3A4; in data set [2]; on Cathepsin G; against Melanocortin receptor 3; in data set [3] (jurkat)) was “Not Active” in each case. Besides, the Ki result on Cytochrome P450 3A4 is “Not Active”.
For the molecule `NC(=O)N1c2ccccc2C=Cc2ccccc21` [CARBAMAZEPINE], the IC50 entry (in data set [1] (sf9); at Cytochrome P450 3A4; in data set [2]; against Cathepsin G; at Melanocortin receptor 3; in data set [3] (jurkat)) was “Not Active” throughout. Also, the Ki entry at Cytochrome P450 3A4 is listed as “Not Active”.
For `CCOC(=O)n1ccn(C)c1=S` [CARBIMAZOLE], the IC50 entry (in data set [1] (sf9); on Cytochrome P450 3A4; in data set [2]; against Cathepsin G; against Melanocortin receptor 3; in data set [3] (jurkat)) was “Not Active” in each case. At Cytochrome P450 3A4, the Ki entry is recorded as “Not Active”.
Consider `Oc1ccccc1O` [CATECHOL], for which the IC50 result (in data set [1] (sf9); against Cytochrome P450 3A4; in data set [2]; at Cathepsin G; against Melanocortin receptor 3; in data set [3] (jurkat)) was “Not Active” each time. For the same molecule, the Ki result on Cytochrome P450 3A4 is “Not Active”.
Turning to `CO[C@@]1(NC(=O)CSCC#N)C(=O)N2C(C(=O)O)=C(CSc3nnnn3C)CS[C@@H]21` [CEFMETAZOLE], the IC50 entry (in data set [1] (sf9); against Cytochrome P450 3A4; in data set [2]; against Cathepsin G; at Melanocortin receptor 3; in data set [3] (jurkat)) was “Not Active” throughout. Further, the Ki result on Cytochrome P450 3A4 was “Not Active”.
Take `CN(C(=O)CCCOc1ccc2[nH]c(=O)ccc2c1)C1CCCCC1` [CILOSTAMIDE]: the IC50 entry (in data set [1] (sf9); against Cytochrome P450 3A4; in data set [2]; against Cathepsin G; against Melanocortin receptor 3; in data set [3] (jurkat)) was “Not Active” each time. Also, at Cytochrome P450 3A4, the Ki entry is “Not Active”.
Regarding `CC(C)(Oc1ccc(C2CC2(Cl)Cl)cc1)C(=O)O` (configuration not stated) [CIPROFIBRATE], the IC50 entry (in data set [1] (sf9); on Cytochrome P450 3A4; on Cathepsin G; against Melanocortin receptor 3; in data set [3] (jurkat)) was “Not Active” in each case. For the same molecule, the Ki result (at Cytochrome P450 3A4; in data set [2]) was “Not Active” in each case.
As for `Nc1nc(Cl)nc2c1ncn2[C@H]1C[C@H](O)[C@@H](CO)O1` [CLADRIBINE], the IC50 entry (in data set [1] (sf9); at Cytochrome P450 3A4; in data set [2]; against Cathepsin G; at Melanocortin receptor 3; in data set [3] (jurkat)) was “Not Active” throughout. Moreover, the Ki entry on Cytochrome P450 3A4 was “Not Active”.
Regarding `CC[C@H]1OC(=O)[C@H](C)[C@@H](O[C@H]2C[C@@](C)(OC)[C@@H](O)[C@H](C)O2)[C@H](C)[C@@H](O[C@@H]2O[C@H](C)C[C@H](N(C)C)[C@H]2O)[C@](C)(OC)C[C@@H](C)C(=O)[C@H](C)[C@@H](O)[C@]1(C)O` [CLARITHROMYCIN], the IC50 result (in data set [1] (sf9); at Cytochrome P450 3A4; in data set [2]; at Cathepsin G; at Melanocortin receptor 3; in data set [3] (jurkat)) was “Not Active” throughout. Further, the Ki result on Cytochrome P450 3A4 is “Not Active”.
For `O=C(O)c1cc(=O)c2c(OCC(O)COc3cccc4oc(C(=O)O)cc(=O)c34)cccc2o1` [CROMOLYN], the IC50 entry (in data set [1] (sf9); at Cytochrome P450 3A4; in data set [2]; against Cathepsin G; on Melanocortin receptor 3; in data set [3] (jurkat)) was “Not Active” each time. For the same molecule, at Cytochrome P450 3A4, the Ki entry is on record as “Not Active”.
For the molecule `O=P1(N(CCCl)CCCl)NCCCO1` (configuration not stated) [CYCLOPHOSPHAMIDE ANHYDROUS], the IC50 result (in data set [1] (sf9); against Cytochrome P450 3A4; in data set [2]; against Cathepsin G; against Melanocortin receptor 3; in data set [3] (jurkat)) was “Not Active” each time. For the same molecule, at Cytochrome P450 3A4, the Ki result is given as “Not Active”.
Take `CC(=O)O[C@]1(C(C)=O)CC[C@H]2[C@@H]3C=C(Cl)C4=CC(=O)[C@@H]5C[C@@H]5[C@]4(C)[C@H]3CC[C@@]21C` [CYPROTERONE ACETATE]: the IC50 entry (in data set [1] (sf9); at Cytochrome P450 3A4; in data set [2]; at Cathepsin G; at Melanocortin receptor 3; in data set [3] (jurkat)) was “Not Active” throughout. In addition, at Cytochrome P450 3A4, the Ki result is on record as “Not Active”.
As for `Nc1nc(N)nc(NC2CC2)n1` [CYROMAZINE], the IC50 entry (in data set [1] (sf9); on Cytochrome P450 3A4; in data set [2]; on Cathepsin G; against Melanocortin receptor 3; in data set [3] (jurkat)) was “Not Active” in each case. The Ki entry at Cytochrome P450 3A4 is “Not Active”.
Take `C#C[C@]1(O)CC[C@H]2[C@@H]3CCC4=Cc5oncc5C[C@]4(C)[C@H]3CC[C@@]21C` [DANAZOL]: the IC50 (as a rule, the concentration that gives 50% inhibition) in data set [1] (read-out: IC50) was 18.3 µM; on Cytochrome P450 3A4 it was “Not Active”; in data set [2], “Not Active”; on Cathepsin G, “Not Active”; on Melanocortin receptor 3 it was “Not Active”; in data set [3] (jurkat), “Not Active”. In addition, the Ki in data set [1] (read-out: Ki) was 6.87 µM; on Cytochrome P450 3A4, “Not Active”.
`CCN[C@@H](C)Cc1cccc(C(F)(F)F)c1` [DEXFENFLURAMINE]: the IC50 entry in data set [1] (sf9) was “Not Active”; on Cytochrome P450 3A4, “Not Active”; in data set [2], “Not Active”; against Cathepsin G it was “Not Active”; on Melanocortin receptor 3, “Not Active”; in data set [3] (read-out: IC50), 0.516 µM. For the same molecule, the Ki result is “Not Active” at Cytochrome P450 3A4 and 0.217 µM in data set [3] (read-out: Ki).
On to `C[C@H](C(=O)O)c1cccc(C(=O)c2ccccc2)c1` [DEXKETOPROFEN], for which the IC50 result (in data set [1] (sf9); against Cytochrome P450 3A4; in data set [2]; against Cathepsin G; against Melanocortin receptor 3; in data set [3] (jurkat)) was “Not Active” each time. Also, the Ki entry at Cytochrome P450 3A4 is on record as “Not Active”.
